Data reported in US12258355B2, “Probes for imaging huntingtin protein” (CHDI Foundation, Inc., priority 2014, dated 2025).

Target: T1, Q46 protein aggregates (Homo sapiens, UniProt P42858)
T1 construct: fused on or other part: GST at the N-terminus, cut off with thrombin before the test to start aggregation; The wells held aggregated Q46 without GST
Experiment: Q46 radioligand binding assay (RBA)
Conditions: 10 nM ligand [3H3]MK-3328
Protocol: Q46 Radioligand Binding Assay
For radioligand binding assays (RBA) GST-Q46 protein was generated based on a previous publication (Scherzinger et al. Cell, Vol. 90, 549-558, Aug. 8, 1997). For experiments 33 μM GST-Q46 was incubated with 150 μg/mL thrombin in assay buffer (150 mM NaCl, 50 mM Tris pH 8.0) and 2 mM CaCl2 for 16 hours at 37° C. Aggregated Q46 was pelleted by centrifugation for 5 minutes at 13,000 rpm in a bench top centrifuge and re-dissolved in the same volume of assay buffer. Test compounds were prepared by titration in DMSO at 11 concentrations from 33 μM to 1 nM. For the RBA, Q46 protein aggregates and test compounds were pre-incubated in assay buffer for 20 minutes at room temperature, in 140 μL/well in a 96-well plate (pp, round bottom). Then, ligand was added in 10 μL/well and incubated for 60 minutes at 37° C. Final assay concentrations were 1 μM to 30 pM test compound, 5 μM Q46 protein (equivalent monomer concentration) and 10 nM ligand [^3H3]MK-3328 (Harrision et al., ACS Med. Chem. Lett., 2 (2011), pp 498-502). Samples were transferred onto GF/B filter plates and washed 2× with 200 μL PBS using a Filtermate Harvester. After drying filter plates for 1 hour at 37° C., the back of the plates were sealed with foil and 30 μL/well scintillation fluid (Packard MicroScint 40) added, incubated for 15 minutes in the dark and counted in a TopCount reader. For analysis, replicate data from independent assay plates were normalized towards 0% and 100% inhibition using control wells of vehicle (0% inhibition) and 3 μM unlabelled MK-3328 (100% inhibition). IC50 values were determined with a sigmoidal inhibition model with four variables (top, bottom, slope, IC50) in a global fit using the normalized replicate data.

T1 sequence (P42858 with tags, fused parts or gaps with the stated changes, form open): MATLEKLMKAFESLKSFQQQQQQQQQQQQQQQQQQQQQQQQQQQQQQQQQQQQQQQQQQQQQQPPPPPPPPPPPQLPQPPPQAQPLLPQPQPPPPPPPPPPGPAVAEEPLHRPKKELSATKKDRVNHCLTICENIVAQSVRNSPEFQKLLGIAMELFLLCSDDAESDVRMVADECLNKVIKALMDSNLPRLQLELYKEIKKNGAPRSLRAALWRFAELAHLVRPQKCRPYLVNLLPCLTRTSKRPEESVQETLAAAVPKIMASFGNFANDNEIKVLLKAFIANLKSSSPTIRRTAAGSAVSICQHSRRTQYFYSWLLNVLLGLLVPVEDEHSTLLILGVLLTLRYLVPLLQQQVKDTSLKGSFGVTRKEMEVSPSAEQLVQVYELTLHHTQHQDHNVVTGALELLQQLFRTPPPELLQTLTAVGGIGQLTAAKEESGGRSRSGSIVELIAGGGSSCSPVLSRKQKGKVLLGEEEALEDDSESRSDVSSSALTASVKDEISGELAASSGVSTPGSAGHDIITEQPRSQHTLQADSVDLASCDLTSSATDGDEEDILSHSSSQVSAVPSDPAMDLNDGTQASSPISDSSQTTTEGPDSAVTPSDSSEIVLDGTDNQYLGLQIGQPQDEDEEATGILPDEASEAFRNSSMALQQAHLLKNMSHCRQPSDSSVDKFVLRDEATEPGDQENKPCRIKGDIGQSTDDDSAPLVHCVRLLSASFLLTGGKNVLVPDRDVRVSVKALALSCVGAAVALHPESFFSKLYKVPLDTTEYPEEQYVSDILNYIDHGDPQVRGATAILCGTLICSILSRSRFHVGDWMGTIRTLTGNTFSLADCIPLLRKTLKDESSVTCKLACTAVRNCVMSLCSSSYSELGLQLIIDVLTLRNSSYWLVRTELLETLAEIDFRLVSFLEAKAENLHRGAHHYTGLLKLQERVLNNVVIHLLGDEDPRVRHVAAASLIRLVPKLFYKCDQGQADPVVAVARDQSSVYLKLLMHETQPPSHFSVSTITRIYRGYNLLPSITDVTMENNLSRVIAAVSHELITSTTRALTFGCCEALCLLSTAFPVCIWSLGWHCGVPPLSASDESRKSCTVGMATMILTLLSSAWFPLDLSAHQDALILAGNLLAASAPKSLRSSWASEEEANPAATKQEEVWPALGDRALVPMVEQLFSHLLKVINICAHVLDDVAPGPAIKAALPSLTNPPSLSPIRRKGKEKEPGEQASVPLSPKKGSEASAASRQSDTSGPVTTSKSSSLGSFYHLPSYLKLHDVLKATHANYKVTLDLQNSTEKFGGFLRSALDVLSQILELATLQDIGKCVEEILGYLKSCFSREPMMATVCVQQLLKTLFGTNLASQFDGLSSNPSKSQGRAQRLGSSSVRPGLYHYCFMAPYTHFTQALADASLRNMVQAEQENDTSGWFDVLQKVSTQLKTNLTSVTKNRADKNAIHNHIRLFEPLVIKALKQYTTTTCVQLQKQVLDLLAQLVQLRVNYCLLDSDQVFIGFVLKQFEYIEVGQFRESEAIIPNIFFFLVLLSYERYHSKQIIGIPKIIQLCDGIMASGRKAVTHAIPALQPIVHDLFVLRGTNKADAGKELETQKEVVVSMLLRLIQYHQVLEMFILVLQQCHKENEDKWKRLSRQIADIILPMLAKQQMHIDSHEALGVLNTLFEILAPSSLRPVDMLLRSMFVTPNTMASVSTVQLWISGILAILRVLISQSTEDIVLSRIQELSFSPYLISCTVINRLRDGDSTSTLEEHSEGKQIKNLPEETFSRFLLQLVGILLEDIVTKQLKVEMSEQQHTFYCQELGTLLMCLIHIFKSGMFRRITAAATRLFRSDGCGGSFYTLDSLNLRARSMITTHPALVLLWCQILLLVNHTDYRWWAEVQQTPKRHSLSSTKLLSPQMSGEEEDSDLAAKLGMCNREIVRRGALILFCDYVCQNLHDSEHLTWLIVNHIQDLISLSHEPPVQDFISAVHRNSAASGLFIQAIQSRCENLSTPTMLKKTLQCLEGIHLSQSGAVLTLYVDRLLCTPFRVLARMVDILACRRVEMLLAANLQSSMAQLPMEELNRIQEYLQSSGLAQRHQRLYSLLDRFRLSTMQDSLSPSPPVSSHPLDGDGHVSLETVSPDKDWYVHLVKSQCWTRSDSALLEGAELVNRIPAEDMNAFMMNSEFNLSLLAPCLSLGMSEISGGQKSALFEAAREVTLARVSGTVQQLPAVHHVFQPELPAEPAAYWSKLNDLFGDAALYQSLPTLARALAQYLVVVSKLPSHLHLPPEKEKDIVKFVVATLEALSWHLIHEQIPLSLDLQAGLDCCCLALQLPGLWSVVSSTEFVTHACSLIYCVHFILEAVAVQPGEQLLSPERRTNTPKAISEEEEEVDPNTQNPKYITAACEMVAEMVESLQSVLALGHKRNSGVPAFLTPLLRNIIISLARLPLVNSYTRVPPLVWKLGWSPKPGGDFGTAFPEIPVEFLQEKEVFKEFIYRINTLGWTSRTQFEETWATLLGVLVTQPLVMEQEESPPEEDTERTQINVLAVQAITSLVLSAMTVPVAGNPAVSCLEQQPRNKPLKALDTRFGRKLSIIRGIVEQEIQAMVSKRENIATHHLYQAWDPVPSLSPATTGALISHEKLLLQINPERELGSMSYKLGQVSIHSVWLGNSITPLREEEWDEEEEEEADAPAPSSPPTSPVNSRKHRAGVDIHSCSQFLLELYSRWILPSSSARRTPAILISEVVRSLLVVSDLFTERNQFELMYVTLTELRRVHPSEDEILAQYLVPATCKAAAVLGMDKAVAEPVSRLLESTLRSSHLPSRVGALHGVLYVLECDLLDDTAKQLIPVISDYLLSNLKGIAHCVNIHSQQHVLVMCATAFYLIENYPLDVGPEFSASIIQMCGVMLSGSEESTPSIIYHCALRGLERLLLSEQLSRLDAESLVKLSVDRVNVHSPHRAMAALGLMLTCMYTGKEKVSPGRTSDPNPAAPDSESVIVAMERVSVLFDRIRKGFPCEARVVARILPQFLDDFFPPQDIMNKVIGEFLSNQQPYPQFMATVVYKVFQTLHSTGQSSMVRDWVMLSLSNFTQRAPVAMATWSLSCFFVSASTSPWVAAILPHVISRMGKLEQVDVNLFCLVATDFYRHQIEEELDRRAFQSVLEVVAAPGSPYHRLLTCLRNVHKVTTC

SMILES: COc1ccc2c(c1)CN(c1cnc3oc(-c4cccnc4)nc3c1)C2=O [5-methoxy-2-[2-(pyridin-3-yl)-[1,3]oxazolo[5,4-b]pyridin-6-yl]-2,3-dihydro-1H-isoindol-1-one]
- IC50: < 0.1 µM

SMILES: COc1ccc2c(c1)CCN(c1ccc3oc(-c4cccnc4)nc3c1)C2=O [6-methoxy-2-[2-(pyridin-3-yl)-1,3-benzoxazol-5-yl]-1,2,3,4-tetrahydroisoquinolin-1-one]
- IC50: 0.1 to 0.5 µM

SMILES: COc1cncc(C(=O)Nc2ccc3oc(-c4cccnc4)nc3c2)c1 [5-methoxy-N-[2-(pyridin-3-yl)-1,3-benzoxazol-5-yl]pyridine-3-carboxamide]
- IC50: < 0.1 µM

SMILES: O=c1cnc(COc2ccc3oc(-c4cccnc4)nc3c2)c[nH]1 [5-({[2-(pyridin-3-yl)-1,3-benzoxazol-5-yl]oxy}methyl)-1,2-dihydropyrazin-2-one]
- IC50: 0.1 to 0.5 µM

SMILES: C(#Cc1cnc2oc(-c3cccnc3)nc2c1)c1cccnc1 [3-{6-[2-(pyridin-3-yl)ethynyl]-[1,3]oxazolo[5,4-b]pyridin-2-yl}pyridine]
- IC50: < 0.1 µM

SMILES: COc1ccc(COc2ccc3oc(-c4cccnc4)nc3c2)cc1 [5-[(4-methoxyphenyl)methoxy]-2-(pyridin-3-yl)-1,3-benzoxazole]
- IC50: < 0.1 µM

SMILES: COc1ccc(COc2cnc3oc(-c4cnccn4)nc3c2)nc1 [2-{6-[(5-methoxypyridin-2-yl)methoxy]-[1,3]oxazolo[5,4-b]pyridin-2-yl]pyrazine]
- IC50: < 0.1 µM

SMILES: COc1cnc(COc2cnc3oc(-c4cccnc4)nc3c2)nc1 [5-methoxy-2-({[2-(pyridin-3-yl)-[1,3]oxazolo[5,4-b]pyridin-6-yl]oxy}methyl)pyrimidine]
- IC50: < 0.1 µM

SMILES: COc1ccc(COc2ccc3oc(-c4ccc(-c5ncccn5)cc4)nc3c2)nc1 [5-[(5-methoxypyridin-2-yl)methoxy]-2-[4-(pyrimidin-2-yl)phenyl]-1,3-benzoxazole]
- IC50: < 0.1 µM

SMILES: COc1cnc(COc2ccc3oc(-c4cccnc4)nc3c2)cn1 [5-[(5-methoxypyrazin-2-yl)methoxy]-2-(pyridin-3-yl)-1,3-benzoxazole]
- IC50: < 0.1 µM

SMILES: COc1ccc(COc2cnc3oc(-c4ccc[n+]([O-])c4)nc3c2)[n+]([O-])c1 [3-{6-[(5-methoxy-1-oxidopyridin-1-ium-2-yl)methoxy]-[1,3]oxazolo[5,4-b]pyridin-2-yl}pyridin-1-ium-1-olate]
- IC50: 0.1 to 0.5 µM

SMILES: Cn1cnc(COc2ccc3oc(-c4ccncc4C#N)cc3c2)c1 [4-{5-[(1-methyl-1H-imidazol-4-yl)methoxy]-1-benzofuran-2-yl}pyridine-3-carbonitrile]
- IC50: < 0.1 µM

SMILES: COc1ccc(-c2ccc3oc(-c4cccnc4)nc3c2)cc1 [5-(4-methoxyphenyl)-2-(pyridin-3-yl)-1,3-benzoxazole]
- IC50: < 0.1 µM

SMILES: COc1ccc(COc2ccc3oc(-c4ccnnc4)nc3c2)nc1 [5-[(5-methoxypyridin-2-yl)methoxy]-2-(pyridazin-4-yl)-1,3-benzoxazole]
- IC50: < 0.1 µM

SMILES: CNCc1cncc(-c2nc3cc(OCc4ccc(OC)cn4)ccc3o2)c1 [[(5-{5-[(5-methoxypyridin-2-yl)methoxy]-1,3-benzoxazol-2-yl}pyridin-3-yl)methyl](methyl)amine]
- IC50: < 0.1 µM

SMILES: N#Cc1ccncc1-c1cc2cc(OCc3cccnc3)ccc2o1 [3-[5-(pyridin-3-ylmethoxy)-1-benzofuran-2-yl]pyridine-4-carbonitrile]
- IC50: < 0.1 µM

SMILES: COc1ccc(COc2cnc3oc(-c4cccnc4)nc3c2)nn1 [3-methoxy-6-({[2-(pyridin-3-yl)-[1,3]oxazolo[5,4-b]pyridin-6-yl]oxy}methyl)pyridazine]
- IC50: < 0.1 µM

SMILES: COc1ccc(COc2ccc3oc(-c4cccc(C#N)c4)nc3c2)nc1 [3-{5-[(5-methoxypyridin-2-yl)methoxy]-1,3-benzoxazol-2-yl]benzonitrile]
- IC50: < 0.1 µM

SMILES: Cc1cncc(Oc2ccc(C(=O)Nc3ccc4oc(-c5cccnc5)nc4c3)cc2)n1 [4-[(6-methylpyrazin-2-yl)oxy]-N-[2-(pyridin-3-yl)-1,3-benzoxazol-5-yl]benzamide]
- IC50: < 0.1 µM

SMILES: CC(=O)Oc1ccc(C(=O)Nc2ccc3oc(-c4ccc(Cl)cc4)nc3c2)cc1 [4-{[2-(4-chlorophenyl)-1,3-benzoxazol-5-yl]carbamoyl}phenyl acetate]
- IC50: < 0.1 µM

SMILES: COc1cnc(-c2ccc3oc(-c4cccnc4)nc3c2)nc1 [5-(5-methoxypyrimidin-2-yl)-2-(pyridin-3-yl)-1,3-benzoxazole]
- IC50: < 0.1 µM

SMILES: COc1ccc(-c2ccc3oc(-c4cccnc4)nc3c2)nc1 [5-(5-methoxypyridin-2-yl)-2-(pyridin-3-yl)-1,3-benzoxazole]
- IC50: 0.1 to 0.5 µM

SMILES: Cn1cc(-c2ccc3oc(-c4cccnc4)nc3c2)cn1 [5-(1-methyl-1H-pyrazol-4-yl)-2-(pyridin-3-yl)-1,3-benzoxazole]
- IC50: 0.1 to 0.5 µM

SMILES: CNC(=O)c1ccc(-c2nc3cc(OCc4ccc(O)cn4)ccc3o2)cn1 [5-{5-[(5-hydroxypyridin-2-yl)methoxy]-1,3-benzoxazol-2-yl}-N-methylpyridine-2-carboxamide]
- IC50: < 0.1 µM

SMILES: COc1ccc(/C=C/C(=O)Nc2ccc3oc(-c4cccnc4)nc3c2)cc1 [(2E)-3-(4-methoxyphenyl)-N-[2-(pyridin-3-yl)-1,3-benzoxazol-5-yl]prop-2-enamide]
- IC50: < 0.1 µM

SMILES: COc1ncc(C(=O)Nc2ccc3oc(-c4cccc(C)c4)nc3c2)cn1 [2-methoxy-N-[2-(3-methylphenyl)-1,3-benzoxazol-5-yl]pyrimidine-5-carboxamide]
- IC50: < 0.1 µM

SMILES: Cn1nc(-c2nc3cc(OCc4ccc(O)cn4)ccc3o2)ccc1=O [6-{5-[(5-hydroxypyridin-2-yl)methoxy]-1,3-benzoxazol-2-yl}-2-methyl-2,3-dihydropyridazin-3-one]
- IC50: < 0.1 µM

SMILES: Cn1cc(COc2ccc3oc(-c4ccncc4C#N)cc3c2)cn1 [4-{5-[(1-methyl-1H-pyrazol-4-yl)methoxy]-1-benzofuran-2-yl}pyridine-3-carbonitrile]
- IC50: < 0.1 µM

SMILES: COc1ccc(COc2ccc3oc(N4CCc5cccnc5C4)nc3c2)nc1 [7-{5-[(5-methoxypyridin-2-yl)methoxy]-1,3-benzoxazol-2-yl}-5,6,7,8-tetrahydro-1,7-naphthyridine]
- IC50: < 0.1 µM

SMILES: COc1ccc(C(=O)Nc2ccc3oc(-c4cccc(C)c4)nc3c2)cn1 [6-methoxy-N-[2-(3-methylphenyl)-1,3-benzoxazol-5-yl]pyridine-3-carboxamide]
- IC50: < 0.1 µM

SMILES: CSc1ccc(C(=O)Nc2ccc3oc(-c4cccnc4)nc3c2)cc1 [4-(methylsulfanyl)-N-[2-(pyridin-3-yl)-1,3-benzoxazol-5-yl]benzamide]
- IC50: < 0.1 µM

SMILES: Cn1cc(COc2ccc3oc(-c4cccnc4)nc3c2)cn1 [5-[(1-methyl-1H-pyrazol-4-yl)methoxy]-2-(pyridin-3-yl)-1,3-benzoxazole]
- IC50: 0.1 to 0.5 µM

SMILES: COc1ccc(COc2cnc3oc(-c4cccnc4)nc3c2)nc1 [3-{6-[(5-methoxypyridin-2-yl)methoxy]-[1,3]oxazolo[5,4-b]pyridin-2-yl}pyridine]
- IC50: < 0.1 µM

SMILES: O=C(Nc1ccc2oc(-c3cccnc3)nc2c1)OCc1ccc(O)cn1 [(5-hydroxypyridin-2-yl)methyl N-[2-(pyridin-3-yl)-1,3-benzoxazol-5-yl]carbamate]
- IC50: < 0.1 µM

SMILES: CN(C)CCn1cc(COc2ccc3oc(-c4ccncc4C#N)cc3c2)cn1 [4-[5-({1-[2-(dimethylamino)ethyl]-1H-pyrazol-4-yl}methoxy)-1-benzofuran-2-yl]pyridine-3-carbonitrile]
- IC50: < 0.1 µM

SMILES: COc1ccc(COc2ccc3oc(-c4cccnc4)nc3c2)nc1 [5-[(5-methoxypyridin-2-yl)methoxy]-2-(pyridin-3-yl)-1,3-benzoxazole]
- IC50: < 0.1 µM

SMILES: COc1ccc(COc2cnc3oc(-c4cccnc4)nc3c2)cn1 [3-{6-[(6-methoxypyridin-3-yl)methoxy]-[1,3]oxazolo[5,4-b]pyridin-2-yl}pyridine]
- IC50: < 0.1 µM

SMILES: O=C(Nc1ccc2oc(-c3cccnc3)nc2c1)c1cc(O)ccn1 [4-hydroxy-N-[2-(pyridin-3-yl)-1,3-benzoxazol-5-yl]pyridine-2-carboxamide]
- IC50: 0.1 to 0.5 µM

SMILES: CNc1ccc(COc2ccc3oc(-c4cccnc4)nc3c2)nc1 [N-methyl-6-({[2-(pyridin-3-yl)-1,3-benzoxazol-5-yl]oxy}methyl)pyridin-3-amine]
- IC50: < 0.1 µM

SMILES: O=C(Cc1ccc2oc(-c3cccnc3)nc2c1)c1ccccn1 [1-(pyridin-2-yl)-2-[2-(pyridin-3-yl)-1,3-benzoxazol-5-yl]ethan-1-one]
- IC50: 0.1 to 0.5 µM

SMILES: Cc1cc(C(=O)Nc2ccc3oc(-c4cccnc4)nc3c2)ccn1 [2-methyl-N-[2-(pyridin-3-yl)-1,3-benzoxazol-5-yl]pyridine-4-carboxamide]
- IC50: < 0.1 µM

SMILES: COc1ccc(Nc2ccc3oc(-c4cccnc4)nc3c2)cc1 [N-(4-methoxyphenyl)-2-(pyridin-3-yl)-1,3-benzoxazol-5-amine]
- IC50: 0.1 to 0.5 µM

SMILES: COc1ccc(COc2ccc3oc(-c4cc5ccccc5o4)nc3c2)nc1 [2-(1-benzofuran-2-yl)-5-[(5-methoxypyridin-2-yl)methoxy]-1,3-benzoxazole]
- IC50: < 0.1 µM
